Source: patent publication US4698352A, “4-oxo-1,4-dihydronicotinic acid derivatives, salts thereof, and antibacterial agents containing the same” (Toyama Chemical Co., Ltd., priority 1982, dated 1987)
Converted amounts (≈) assume the structure as drawn. Like-named read-outs stand apart in the source and are kept apart here.

Experiments:
Assay in all cases: Antibacterial activity (MIC), agar dilution
Format in all cases: cell-based
Aci. antitratus A-6 = conditions: 20 h, Aci. antitratus A-6; 10^6 cells per ml; 37° C., 20 hours; read-out: MIC
Text: (§1) The amount of bacteria inoculated was 10^4 cells per plate (10^6 cells per ml).

E. coli NIHJ JC-2 = conditions: Escherichia coli, NIHJJC2, 20 h
Text: as §1

E. coli TK-111 = conditions: Escherichia coli, TK111, 20 h, E. coli TK-111; 10^6 cells per ml; 37° C., 20 hours; read-out: MIC
Text: as §1

Ent. cloacae IID977 = conditions: Enterobacter cloacae, IID977, 20 h
Text: as §1

Kl. pneumoniae Y-41 = conditions: Klebsiella pneumoniae, Y41, 10^6 cells per ml, 37° C., 20 hours, read-out: MIC
Text: as §1

Kl. pneumoniae Y-50 = conditions: Klebsiella pneumoniae, Y50, 20 h, 10^6 cells per ml, 37° C., read-out: MIC
Text: as §1

Pro. mirabilis T-111 = conditions: Proteus mirabilis, 37° C.
Text: as §1

Pro. morganii T-216 = conditions: Morganella morganii, 37° C.
Text: as §1

Pro. vulgaris GN3027 = conditions: Proteus vulgaris, GN3027, 20 h, Pro. vulgaris GN3027; 10^6 cells per ml; 37° C., 20 hours; read-out: MIC
Text: as §1

Ps. aeruginosa IFO3445 = conditions: Pseudomonas aeruginosa
Text: as §1

Ps. aeruginosa S-68 = conditions: Pseudomonas aeruginosa
Text: as §1

St. aureus FDA209P = conditions: Staphylococcus aureus, FDA209P, 20 h
Text: as §1

E. coli TK-3* = conditions: Escherichia coli, 20 h, E. coli TK-3, penicillinase-producing; 10^6 cells per ml; read-out: MIC
Text: as §1
(§2) * Penicillinase-producing bacteria

Kl. pneumoniae Y-4* = conditions: Klebsiella pneumoniae, 20 h, Kl. pneumoniae Y-4, penicillinase-producing; 10^6 cells per ml; read-out: MIC
Text: as §1, §2

Ps. aeruginosa GN3379* = conditions: Pseudomonas aeruginosa, Ps. aeruginosa GN3379, penicillinase-producing, 10^6 cells per ml
Text: as §1, §2

St. aureus F-137* = conditions: Staphylococcus aureus, 20 h, St. aureus F-137, penicillinase-producing; 10^6 cells per ml; read-out: MIC
Text: as §1, §2

E. coli GN5482** = conditions: Escherichia coli, 20 h; E. coli GN5482, cephalospolinase-producing; 10^6 cells per ml; read-out: MIC
Text: as §1
(§3) ** Cephalospolinase-producing bacteria

Pro. vulgaris GN76** = conditions: Proteus vulgaris, 20 h; Pro. vulgaris GN76, cephalospolinase-producing; 10^6 cells per ml; read-out: MIC
Text: as §1, §3

Ps. aeruginosa GN918** = conditions: Pseudomonas aeruginosa, Ps. aeruginosa GN918, cephalospolinase-producing, 10^6 cells per ml
Text: as §1, §3

[1] = E. coli NIHJ JC-2, 10^6 cells per ml, 37° C., 20 hours, read-out: MIC
[2] = Ent. cloacae IID977, 10^6 cells per ml, 37° C., 20 hours, read-out: MIC
[3] = T111, 10^6 cells per ml, 20 hours, read-out: MIC
[4] = T216, 10^6 cells per ml, 20 hours, read-out: MIC
[5] = Ps. aeruginosa IFO3445, 10^6 cells per ml, 37° C., 20 hours, read-out: MIC
[6] = S68, Ps. aeruginosa S-68, 10^6 cells per ml, 37° C., 20 hours, read-out: MIC
[7] = St. aureus FDA209P, 10^6 cells per ml, 37° C., 20 hours, read-out: MIC

| Structure (SMILES) | MIC (Aci. antitratus A-6) | MIC (E. coli NIHJ JC-2; [1]) | MIC (E. coli TK-111) | MIC (Ent. cloacae IID977; [2]) | MIC (Kl. pneumoniae Y-41) | MIC (Kl. pneumoniae Y-50) | MIC (Pro. mirabilis T-111; [3]) | MIC (Pro. morganii T-216; [4]) | MIC (Pro. vulgaris GN3027) | MIC (Ps. aeruginosa IFO3445; [5]) | MIC (Ps. aeruginosa S-68; [6]) | MIC (St. aureus FDA209P; [7]) | MIC (E. coli TK-3*) | MIC (Kl. pneumoniae Y-4*) | MIC (Ps. aeruginosa GN3379*; 20 h, read-out: MIC) | MIC (St. aureus F-137*) | MIC (E. coli GN5482**) | MIC (Pro. vulgaris GN76**) | MIC (Ps. aeruginosa GN918**; 20 h, read-out: MIC) | MIC (Ps. aeruginosa S-68; S68, 20 h) | other results |
| --- | --- | --- | --- | --- | --- | --- | --- | --- | --- | --- | --- | --- | --- | --- | --- | --- | --- | --- | --- | --- | --- |
| O=C(O)c1cn(-c2ccc(O)cc2)c(-c2cc3ccccc3s2)cc1=O | 0.2 µg/mL (≈ 0.55 µM) | 0.2 µg/mL (≈ 0.55 µM) | ≤ 0.05 µg/mL | 0.39 µg/mL (≈ 1.07 µM) | 0.78 µg/mL (≈ 2.15 µM) | 0.2 µg/mL (≈ 0.55 µM) | 0.78 µg/mL (≈ 2.15 µM) | 0.39 µg/mL (≈ 1.07 µM) | ≤ 0.05 µg/mL | 3.13 µg/mL (≈ 8.61 µM) | 0.78 µg/mL (≈ 2.15 µM) | ≤ 0.05 µg/mL | 0.39 µg/mL (≈ 1.07 µM) | 0.78 µg/mL (≈ 2.15 µM) | 3.13 µg/mL (≈ 8.61 µM) | ≤ 0.05 µg/mL | ≤ 0.05 µg/mL | 0.2 µg/mL (≈ 0.55 µM) | 3.13 µg/mL (≈ 8.61 µM) |  |  |
| O=C(O)c1cn(-c2ccc(O)cc2)c(-c2ccc(-n3cccn3)cc2)cc1=O | 0.78 µg/mL (≈ 2.09 µM) | 0.1 µg/mL (≈ 0.268 µM) | ≤ 0.05 µg/mL | 0.2 µg/mL (≈ 0.536 µM) | 0.78 µg/mL (≈ 2.09 µM) | 0.2 µg/mL (≈ 0.536 µM) | 3.13 µg/mL (≈ 8.38 µM) | 1.56 µg/mL (≈ 4.18 µM) | 0.39 µg/mL (≈ 1.04 µM) | 6.25 µg/mL (≈ 16.7 µM) | 6.25 µg/mL (≈ 16.7 µM) | 0.39 µg/mL (≈ 1.04 µM) | 0.2 µg/mL (≈ 0.536 µM) | 0.78 µg/mL (≈ 2.09 µM) | 6.25 µg/mL (≈ 16.7 µM) | 0.39 µg/mL (≈ 1.04 µM) | ≤ 0.05 µg/mL | 1.56 µg/mL (≈ 4.18 µM) | 3.13 µg/mL (≈ 8.38 µM) |  |  |
| Cc1cc(O)ccc1-n1cc(C(=O)O)c(=O)cc1-c1ccccc1 | 0.78 µg/mL (≈ 2.43 µM) | 0.2 µg/mL (≈ 0.622 µM) | 0.1 µg/mL (≈ 0.311 µM) | 0.39 µg/mL (≈ 1.21 µM) | 0.78 µg/mL (≈ 2.43 µM) | 0.1 µg/mL (≈ 0.311 µM) | 0.78 µg/mL (≈ 2.43 µM) | 0.39 µg/mL (≈ 1.21 µM) | ≤ 0.05 µg/mL | 6.25 µg/mL (≈ 19.5 µM) | 3.13 µg/mL (≈ 9.74 µM) | 0.2 µg/mL (≈ 0.622 µM) | 0.39 µg/mL (≈ 1.21 µM) | 1.56 µg/mL (≈ 4.85 µM) | 12.5 µg/mL (≈ 38.9 µM) | 0.2 µg/mL (≈ 0.622 µM) | ≤ 0.05 µg/mL | 0.2 µg/mL (≈ 0.622 µM) |  |  | MIC (Ps. aeruginosa GN918**; GN918, 20 h): 1.56 µg/mL (≈ 4.85 µM) |
| O=C(O)c1cn(-c2ccc(O)cc2)c(-c2ccc3ccccc3c2)cc1=O | 0.2 µg/mL (≈ 0.56 µM) | 0.2 µg/mL (≈ 0.56 µM) | ≤ 0.05 µg/mL | 0.39 µg/mL (≈ 1.09 µM) | 1.56 µg/mL (≈ 4.37 µM) | 0.39 µg/mL (≈ 1.09 µM) | 0.78 µg/mL (≈ 2.18 µM) | 0.39 µg/mL (≈ 1.09 µM) | 0.1 µg/mL (≈ 0.28 µM) | 6.25 µg/mL (≈ 17.5 µM) |  | ≤ 0.05 µg/mL | 0.39 µg/mL (≈ 1.09 µM) | 1.56 µg/mL (≈ 4.37 µM) | 3.13 µg/mL (≈ 8.76 µM) | ≤ 0.05 µg/mL | ≤ 0.05 µg/mL | 0.39 µg/mL (≈ 1.09 µM) | 6.25 µg/mL (≈ 17.5 µM) | 1.56 µg/mL (≈ 4.37 µM) |  |
| CNc1ccc(-c2cc(=O)c(C(=O)O)cn2-c2ccc(F)cc2)cc1C | 0.78 µg/mL (≈ 2.21 µM) |  | 0.39 µg/mL (≈ 1.11 µM) |  | 6.25 µg/mL (≈ 17.7 µM) | 1.56 µg/mL (≈ 4.43 µM) |  |  | 0.78 µg/mL (≈ 2.21 µM) | 50 µg/mL (≈ 142 µM) |  |  | 3.13 µg/mL (≈ 8.88 µM) | 12.5 µg/mL (≈ 35.5 µM) | 25 µg/mL (≈ 70.9 µM) | 0.78 µg/mL (≈ 2.21 µM) | 0.2 µg/mL (≈ 0.568 µM) | 3.13 µg/mL (≈ 8.88 µM) | 50 µg/mL (≈ 142 µM) | 12.5 µg/mL (≈ 35.5 µM) | MIC (E. coli NIHJ JC-2): 1.56 µg/mL (≈ 4.43 µM); MIC (Ent. cloacae IID977): 6.25 µg/mL (≈ 17.7 µM); MIC (Pro. mirabilis T-111; T111, 20 h, 10^6 cells per ml): 12.5 µg/mL (≈ 35.5 µM); MIC (Pro. morganii T-216; T216, 20 h, 10^6 cells per ml): 6.25 µg/mL (≈ 17.7 µM); MIC (St. aureus FDA209P): 1.56 µg/mL (≈ 4.43 µM) |
| CC(=O)Oc1ccc(-n2cc(C(=O)O)c(=O)cc2-c2ccc(N(C)C)cc2)cc1 | 0.2 µg/mL (≈ 0.51 µM) | 0.2 µg/mL (≈ 0.51 µM) | ≤ 0.05 µg/mL |  | 1.56 µg/mL (≈ 3.98 µM) | 0.39 µg/mL (≈ 0.994 µM) |  | 0.78 µg/mL (≈ 1.99 µM) | 0.1 µg/mL (≈ 0.255 µM) |  |  | 0.1 µg/mL (≈ 0.255 µM) | 0.39 µg/mL (≈ 0.994 µM) | 3.13 µg/mL (≈ 7.98 µM) |  | 0.1 µg/mL (≈ 0.255 µM) | ≤ 0.05 µg/mL | 0.39 µg/mL (≈ 0.994 µM) | 0.78 µg/mL (≈ 1.99 µM) | 3.13 µg/mL (≈ 7.98 µM) | MIC (Ent. cloacae IID977): 1.56 µg/mL (≈ 3.98 µM); MIC (Pro. mirabilis T-111; T111, 20 h, 10^6 cells per ml): 3.13 µg/mL (≈ 7.98 µM); MIC (Ps. aeruginosa IFO3445; IFO3445, 20 h): 3.13 µg/mL (≈ 7.98 µM); MIC (Ps. aeruginosa GN3379*; GN3379, 20 h): 3.13 µg/mL (≈ 7.98 µM) |
